Data published in patent US20160022775A1, “TREATING LYSOSOMAL STORAGE DISEASE” (UNIVERSITY OF ROCHESTER, priority 2013, published 2016).
“Also recorded” adds a separate entry of the source.

Tests used:
primary OPCs [1] = experiment: Screen for protection of OPC division at sublethal concentrations of psychosine; type: cell-based, rat; conditions: psychosine concentrations that suppress division without appreciable death
Protocol: Experiments were conducted to identify FDA-approved agents that rescue precursor cells of the CNS from the effects of the lipids thought to be toxic in KD, GD and MLD. To identify therapeutic agents that could be candidates for relatively rapid translation to the clinic, candidate agents were screened (based on cellular and molecular analyses) and unbiased drug screens were conducted using the NINDSII library of 1040 compounds approved by the FDA or in clinical trials. The intent of these screens was to discover previously unknown activities of agents for which pharmacokinetic and toxicological information is already available. The initial screening assays used are for (i) protection against OPC death induced by lethal concentrations of toxic lipids (48 hr exposure) and (ii) protection of OPC division induced by exposure to sublethal concentrations of toxic lipids. […]

primary OPCs [2] = experiment: Screen for protection against OPC death induced by lethal concentrations of psychosine; type: cell-based, rat; conditions: for rescue of cell survival from psychosine: primary OPCs, lethal psychosine exposure
Protocol: Experiments were conducted to identify FDA-approved agents that rescue precursor cells of the CNS from the effects of the lipids thought to be toxic in KD, GD and MLD. To identify therapeutic agents that could be candidates for relatively rapid translation to the clinic, candidate agents were screened (based on cellular and molecular analyses) and unbiased drug screens were conducted using the NINDSII library of 1040 compounds approved by the FDA or in clinical trials. The intent of these screens was to discover previously unknown activities of agents for which pharmacokinetic and toxicological information is already available. The initial screening assays used are for (i) protection against OPC death induced by lethal concentrations of toxic lipids (48 hr exposure) and (ii) protection of OPC division induced by exposure to sublethal concentrations of toxic lipids.
In this screen, a library of 1040 compounds, either approved for use or in clinical trials, were examined at three different doses for their ability to protect against psychosine-induced cell death. […]

[3] = system: human fetal neuroepithelial stem cells (hNSCs); experiment: Sensitivity of human CNS precursor cells to toxic lipids; type: cell-based
primary OPCs [4] = experiment: Survival of OPCs exposed to toxic lipids (calcein AM / propidium iodide, CELIGO); type: cell-based
Protocol: Whether toxic lipids have similar effects on the function of oligodendrocyte precursor cells (OPCs, the direct ancestors of myelin-forming oligodendrocytes), due to the common features of myelin breakdown and failure to repair such damage in LSDs, was determined. These experiments all used standard techniques (see Mayer et al. PNAS, 91: 7496-7500 (1994); Ibarrola et al. Dev. Biol. 180: 1-121 (1996); Smith et al. PNAS 97: 10032-10037 (2000); Power et al. Dev. Biol. 245: 362-375 (2002); Dietrich et al. J. Biol. 5: e22 (2006); Li et al. PLoS Biol. 5: e35 (2007)), as adapted to enable rapid automated analysis of microscopy images captured using the CELIGO® imaging system (Brooks Automation, Chelmsford, Mass.). This system enables collection of data using brightfield and three-color fluorescence and provides similar information to be obtained at the single cell level in adherent cell cultures as yielded by flow cytometry. This approach enables quantitatively analysis of 80 different experimental conditions (in triplicate) per hour.
Studies on division and survival of OPCs exposed to 0.1, 0.5, 1, 2, 5 or 10 μM PC, GPS or LS were conducted for 1, 2, 3 or 5 days. These experiments followed standard procedures (see Mayer et al. PNAS, 91: 7496-7500 (1994); Dietrich et al. J. Biol. 5: e22 (2006); and Han et al. J. Biol. 7 (4):12 (2008)) except that cell death was quantified using calcein AM and propidium iodide (PI) labeling of live cultures was used to identify live and dead cells, respectively. […] These dyes effectively overcome the problems with dyes for which cell numbers are inferred from metabolic activity (e.g., MTT, Alamar Blue), and provide quantitative information on cell numbers. Independent confirmation was obtained in all cases by visual examination of cultures. In these, and all other cases, all experiments were repeated at least three times, and all data points were collected in triplicate. All experiments were conducted in conditions of 5% O2, to more closely mimic physiological oxygen concentrations.
The sensitivity of primary OPCs to PC was determined. The sensitivity of the cells to glucopsychosine (GPC) and lysosulfatide (LS) was also examined. […] Thus, OPCs are even more sensitive to PC than oligodendrocytes, which are sensitive at 10 μM psychosine. More critically, they are an order of magnitude more sensitive than indicated by studies described in Zaka et al. (Mol. Cell Neurosci. 30 (3): 398-407 (2005)) on immortalized cell lines.

[5] = system: primary oligodendrocyte progenitor cells; experiment: Protection of OPCs against toxicity of glucopsychosine and lysosulfatide; type: cell-based; conditions: OPC survival
Description: Since lysosomal storage disorders are so rare, there is a strong disincentive to invest heavily in treatments. Therefore, there is a clear need to identify agents that would be of use in the treatment of multiple lysosomal storage disorders. […] Nonetheless, due to the importance of such a goal, the agents that protect against both cell death and suppression of cell division caused by exposure to psychosine were examined in order to determine their potential utility in protection against the toxic effects of glucopsychosine (elevated in Gaucher's disease) and of lysosulfatide (elevated in metachromatic leukodystrophy). These diseases were chosen as they come from two functionally different disease groups as defined by a cellular assay for lysosomal function wherein BODIPY-LacCer uptake is detected.
The ability of agents that protect against psychosine mediated suppression of cell division and cell survival to also protect against the toxicity of glucopsychosine and lysosulfatide was examined.

[6] = system: immortalized cell line characterized as an oligodendrocyte progenitor cell line; conditions: Zaka et al.; immortalized cell line, 50 μM psychosine; cited from earlier work
twitcher −/− mice = experiment: In vivo treatment of twitcher -/- mice (model of Krabbe disease); conditions: for appearance and behavior (films, still images): 24-day-old twi−/− mice
Description: In order to determine whether agents identified in in vitro studies are capable of providing an in vivo benefit, the effects of IGF-1 were examined in twitcher −/− mice, an accepted model of Krabbe disease. The twitcher −/− mice harbor a mutation in galactocerebosidase that mimics Krabbe disease. The strategy for in vivo analyses was to determine whether FDA-approved compounds of potential interest improve neurological symptoms and/or extend survival times of twi−/− mice. These studies used techniques employed in studies on toxicity of chemotherapeutic agents for the CNS (See Dietrich et al. J. Biol. 5 (7): e22 (2006); Han et al. CNS J. Biol. 7: e12 (2008)).
In in vivo experiments, IGF-I was administered daily, beginning 10 days after birth, through i.p. injection (100 μg/kg, which is below dosages used in other studies using peripheral administration (See Aberg et al. J. Neurosci. 20: 2896-2903 (2000)). This time point is earlier than the expression of neurological symptoms but is considerably later than that used in attempts to treat these mice by HSC transplants, enzyme replacement therapy or both combined (See Qin et al. Mol. Genet. Metab. 107: 186-196 (2012)). Mice were evaluated at 24 days of age to enable analysis of cell division in vivo. Comparative analysis after 40 days was not possible due to death of the control (saline-treated) twi−/− mice shortly after 40 days of age.
Drugs are delivered once daily by i.p. administration (using 100 μg/kg, which provide benefit (see FIG. 8). All animals are marked and genotyped within the first week after birth to identify +/+, +/− and −/− pups. Outcome measures such as (i) weight gain, motor activity, rotorod analysis, auditory brainstem response and survival are analyzed.
Mice were sacrificed at Day 25 to examine OPC division in vivo (FIG. 8).

[7] = twi−/− mice, 24 days of age, 100 μg/kg i.p. daily

In the case of COc1ccc(C(Cl)=C(c2ccc(OC)cc2)c2ccc(OC)cc2)cc1 [chlorotrianisene], the “rescue of cell division from psychosine” value (primary OPCs [1]) is reported as “inhibit cell death and reduce suppression of cell division”, the “rescue of cell division from psychosine” value (primary OPCs [1]; listed as Chlorotrianisene) is reported as “rescued both cell survival and cell division” and the “rescue of cell survival from psychosine” value (primary OPCs [2]) is reported as “inhibit cell death and reduce suppression of cell division; also recorded: rescued both cell survival and cell division”.
In the case of CC(C)(C)CC(C)(C)c1ccc(O)c(Cc2ccc(Cl)cc2Cl)c1 [clofoctol], the “rescue of cell division from psychosine” value (primary OPCs [1]) is reported as “inhibit cell death and reduce suppression of cell division; also recorded: rescued both cell survival and cell division” and the “rescue of cell survival from psychosine” value (primary OPCs [2]) is reported as “inhibit cell death and reduce suppression of cell division; also recorded: rescued both cell survival and cell division”.
With C=C[C@@]1(C)CC(=O)[C@]2(O)[C@@]3(C)[C@@H](O)CCC(C)(C)[C@@H]3[C@H](O)[C@H](OC(C)=O)[C@@]2(C)O1 [colforsin] the “rescue of cell division from psychosine” value (primary OPCs [1]) was “inhibit cell death and reduce suppression of cell division; also recorded: rescued both cell survival and cell division” and the “rescue of cell survival from psychosine” value (primary OPCs [2]) was “inhibit cell death and reduce suppression of cell division; also recorded: rescued both cell survival and cell division”.
In the case of CCCCCCCCCCCCC/C=C/[C@@H](O)C(N)CO[C@@H]1O[C@H](CO)[C@@H](O)[C@H](O)[C@@H]1O (some centres unmarked) [glucopsychosine], the “vulnerability of hNSCs compared with rat OPCs” value [3] is reported as “at least as vulnerable”, the “exposure level as low as which toxic for OPCs” value (primary OPCs [4]) is reported as 3.304 and the “exposure range toxic for primary OPCs and other primary CNS cells” value (primary OPCs [4]) is reported as “low micromolar range”.
In the case of CCCCCCCCCCCCC/C=C/[C@@H](O)[C@@H](N)CO[C@@H]1O[C@H](CO)[C@H](O)[C@H](OS(=O)(=O)O)[C@H]1O [lysosulfatide], the “exposure level as low as which toxic for OPCs” value (primary OPCs [4]) is reported as 3.304 and the “exposure range toxic for primary OPCs and other primary CNS cells” value (primary OPCs [4]) is reported as “low micromolar range”.
With CC(C)(C)NCC(O)c1ccccc1Cl (centres unmarked) [tulobuterol] the “rescue of cell division from psychosine” value (primary OPCs [1]) was “inhibit cell death and reduce suppression of cell division; also recorded: rescued both cell survival and cell division” and the “rescue of cell survival from psychosine” value (primary OPCs [2]) was “inhibit cell death and reduce suppression of cell division; also recorded: rescued both cell survival and cell division”.
In the case of “IGF-1: insulin-like growth factor-I, polypeptide”, the “protection against toxicity of glucopsychosine” value [5] is given as “protects against the toxicity of glucopsychosine and lysosulfatide; also recorded: similarly effective against lysosulfatide and glucopsychosine as it was against psychosine”, the “protection against toxicity of lysosulfatide” value ([5]; survival data at 5 days) is given as “protects against the toxicity of glucopsychosine and lysosulfatide; also recorded: similarly effective against lysosulfatide and glucopsychosine as it was against psychosine” and the “dose giving marked protection from psychosine-induced cell death” value [6] is given as “one”. For the same compound, the “exposure level giving slight (marginal) reduction of psychosine-induced cell death” value [6] was 100 ng/mL, the “rescue of cell division from psychosine” value (primary OPCs [1]) was “ability to protect both cell division and cell survival; also recorded: rescued both division and survival; also recorded: protects against psychosine mediated suppression of cell division and cell survival; also recorded: inhibit cell death and reduce suppression of cell division; also recorded: Rescue of cell division is also achieved at physiologically relevant dosages” and the “appearance and behavior (films, still images)” value (twitcher −/− mice; 100 μg/kg i.p. daily) was “normal body extension, sleek fur and evidence of extensive locomotor behavior”. For the same compound, the “appearance and behavior (films, still images)” value (twitcher −/− mice; 100 μg/kg i.p. daily, listed as IGF-I) was “essentially normal in appearance”, the “locomotor activity (velocity of movement, cm/sec)” value (twitcher −/− mice; [7]) was “statistically normal locomotor activity” and the weight gain (twitcher −/− mice; [7]) was “normal weight gain”. For the same compound, the “locomotor activity (velocity of movement, cm/sec)” value (twitcher −/− mice; twi−/− mice, 24 days of age, 100 μg/kg i.p. daily, listed as IGF-I) was “restores movement to normal levels”, the “more dividing OPCs than in saline-treated mice” value (twitcher −/− mice; twi−/− mice, corpus callosum, Day 25, 100 μg/kg i.p. daily from 10 days after birth) was about 45% and the “dosage at which beneficial effects on survival are seen” value (primary OPCs [2]; primary OPCs exposed to psychosine) was 10 ng/mL. The “rescue of cell survival from psychosine” value (primary OPCs [2]) was “ability to protect both cell division and cell survival; also recorded: rescued both division and survival; also recorded: protects against psychosine mediated suppression of cell division and cell survival; also recorded: inhibit cell death and reduce suppression of cell division”.
With VEGF the “rescue of cell division from psychosine” value (primary OPCs [1]) was “ability to protect both cell division and cell survival; also recorded: inhibit cell death and reduce suppression of cell division” and the “rescue of cell survival from psychosine” value (primary OPCs [2]) was “ability to protect both cell division and cell survival; also recorded: inhibit cell death and reduce suppression of cell division”.
